Source: PMC10599993, “The PTPN2/PTPN1 inhibitor ABBV-CLS-484 unleashes potent anti-tumour immunity” (Nature, 2023)

How the values were obtained:
Test in all cases: biochemical
Parameters in all cases: Safety pharmacology off-target panel at Eurofins, radioligand binding with agonist or antagonist radioligand (Supplementary Table 2)
A2B (h) = target: T1, A2B (h) (Homo sapiens, UniProt P29275); conditions: antagonist radioligand
T1 construct: gene ADORA2B
Experimental: (§1) Wide-range phosphatase, kinase and preclinical safety pharmacology off-target activity screens were conducted at Eurofins (Extended Data Table 5 and Supplementary Tables 1 and 2). A small phosphatase panel was developed at AbbVie to assess IC50 values on select phosphatases. The following enzymes used in the phosphatase selectivity panel were purchased from Eurofins: PTPN1 (PTP1B; 14–621), PTPN2 (TC-PTP; 14–646), PTPN9 (14–592), SHP1 (14–591) and SHP2 (14–622). The catalytic activity of the phosphatase was monitored using the small-molecule substrate DiFMUP (ThermoFisher) in a fluorescence assay format. In brief, the phosphatase reactions were performed at room temperature in the following assay buffer: 50 mM HEPES, pH 7.2, 100 mM NaCl, 1 mM EDTA, 0.005% Tween-20 and 5 mM TCEP. Each phosphatase was incubated with increasing concentrations of AC484 for 5 min, after which the substrate DiFMUP was added and incubated at 25 °C for 30 min. The final concentration of the enzyme and substrate was maintained at 0.5 nM and 5 μM, respectively, in all the assays. The reaction was then quenched by the addition of a 100 μM solution of bpV(Phen) (Enzo Life Sciences). The fluorescence signal was monitored using an Envision microplate reader (Perkin-Elmer) using excitation and emission wavelengths of 340 nm and 450 nm, respectively. The dose–response curves for the inhibitors were analysed using normalized IC50 regression curve fitting with control-based normalization. Supplementary file 41586_2023_6575_MOESM4_ESM.xlsx: Supplementary Table 2 AC484 receptor selectivity screen.

A3 (h) = target: T2, A3 (h) (Homo sapiens, UniProt P0DMS8); conditions: agonist radioligand
T2 construct: gene ADORA3
T2 sequence (P0DMS8 whole entry): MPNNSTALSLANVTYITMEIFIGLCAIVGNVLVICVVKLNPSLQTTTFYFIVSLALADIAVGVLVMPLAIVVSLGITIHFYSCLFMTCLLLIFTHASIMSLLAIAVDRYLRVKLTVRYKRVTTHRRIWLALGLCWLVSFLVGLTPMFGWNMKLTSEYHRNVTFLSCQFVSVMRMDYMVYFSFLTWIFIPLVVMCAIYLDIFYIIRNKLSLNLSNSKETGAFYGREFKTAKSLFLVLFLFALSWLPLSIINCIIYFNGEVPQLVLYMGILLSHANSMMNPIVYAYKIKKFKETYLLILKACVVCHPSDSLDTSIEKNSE
Experimental: as §1

H2 = target: T3, H2 (Homo sapiens, UniProt P25021); conditions: antagonist radioligand
T3 construct: gene HRH2
Experimental: as §1

m (MOP) = target: T4, m (MOP) (Homo sapiens, UniProt P35372); conditions: agonist radioligand
T4 construct: gene OPRM1; MOP
Experimental: as §1

5-HT7 = target: T5, 5-HT7 (Homo sapiens, UniProt P34969); conditions: agonist radioligand
T5 construct: gene HTR7
T5 sequence (P34969 whole entry): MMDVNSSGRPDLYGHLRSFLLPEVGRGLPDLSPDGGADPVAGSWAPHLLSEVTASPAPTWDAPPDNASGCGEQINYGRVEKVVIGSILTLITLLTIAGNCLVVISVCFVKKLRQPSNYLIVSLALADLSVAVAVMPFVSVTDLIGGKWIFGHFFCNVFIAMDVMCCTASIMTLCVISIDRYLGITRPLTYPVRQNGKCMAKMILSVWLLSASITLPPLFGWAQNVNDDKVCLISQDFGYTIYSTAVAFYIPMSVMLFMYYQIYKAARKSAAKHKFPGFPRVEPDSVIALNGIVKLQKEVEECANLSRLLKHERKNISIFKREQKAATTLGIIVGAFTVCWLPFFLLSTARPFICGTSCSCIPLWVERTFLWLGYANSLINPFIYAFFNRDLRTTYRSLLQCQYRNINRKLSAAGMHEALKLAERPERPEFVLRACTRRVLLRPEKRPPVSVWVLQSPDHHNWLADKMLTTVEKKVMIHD
Experimental: as §1

M4 = target: T6, M4 (Homo sapiens, UniProt P08173); conditions: antagonist radioligand
T6 construct: gene CHRM4
T6 sequence (P08173 whole entry): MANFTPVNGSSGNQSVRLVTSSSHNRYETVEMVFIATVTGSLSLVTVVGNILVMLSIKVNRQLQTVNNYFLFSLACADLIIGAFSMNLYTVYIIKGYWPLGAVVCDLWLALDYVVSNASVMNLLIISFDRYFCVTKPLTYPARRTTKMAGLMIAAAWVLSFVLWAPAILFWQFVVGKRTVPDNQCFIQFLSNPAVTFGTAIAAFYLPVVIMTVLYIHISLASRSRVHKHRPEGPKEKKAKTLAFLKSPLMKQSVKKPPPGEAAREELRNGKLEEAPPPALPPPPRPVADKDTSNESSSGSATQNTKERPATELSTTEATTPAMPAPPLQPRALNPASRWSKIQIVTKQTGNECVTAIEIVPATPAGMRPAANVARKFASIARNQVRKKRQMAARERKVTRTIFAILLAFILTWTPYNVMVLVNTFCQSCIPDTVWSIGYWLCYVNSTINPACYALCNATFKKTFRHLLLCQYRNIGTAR
Experimental: as §1

d (DOP) = target: T7, d (DOP) (Homo sapiens, UniProt P41143); conditions: agonist radioligand
T7 construct: gene OPRD1; DOP
Experimental: as §1

[1] = target: T8, Norepinephrine transporter (Homo sapiens, UniProt P23975); conditions: antagonist radioligand
T8 construct: gene SLC6A2
T8 sequence (P23975 whole entry): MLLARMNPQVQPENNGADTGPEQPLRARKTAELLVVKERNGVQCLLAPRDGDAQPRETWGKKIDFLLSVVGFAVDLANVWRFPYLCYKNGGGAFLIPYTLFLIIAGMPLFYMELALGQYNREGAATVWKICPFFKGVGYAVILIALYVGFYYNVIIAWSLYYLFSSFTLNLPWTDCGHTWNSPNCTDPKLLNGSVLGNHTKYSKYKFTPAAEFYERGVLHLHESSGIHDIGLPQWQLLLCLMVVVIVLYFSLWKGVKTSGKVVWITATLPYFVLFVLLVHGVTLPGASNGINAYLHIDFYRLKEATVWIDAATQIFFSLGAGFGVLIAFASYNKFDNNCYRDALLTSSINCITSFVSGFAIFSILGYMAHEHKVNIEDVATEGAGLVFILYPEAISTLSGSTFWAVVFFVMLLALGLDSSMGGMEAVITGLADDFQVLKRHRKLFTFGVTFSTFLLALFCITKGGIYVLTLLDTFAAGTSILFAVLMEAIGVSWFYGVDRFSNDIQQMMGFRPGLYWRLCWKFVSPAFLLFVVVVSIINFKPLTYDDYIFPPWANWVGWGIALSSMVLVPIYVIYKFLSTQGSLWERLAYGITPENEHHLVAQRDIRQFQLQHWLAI
Experimental: as §1

UT = target: T9, UT (Homo sapiens, UniProt Q9UKP6); conditions: agonist radioligand
T9 construct: gene UTS2R
T9 sequence (Q9UKP6 whole entry): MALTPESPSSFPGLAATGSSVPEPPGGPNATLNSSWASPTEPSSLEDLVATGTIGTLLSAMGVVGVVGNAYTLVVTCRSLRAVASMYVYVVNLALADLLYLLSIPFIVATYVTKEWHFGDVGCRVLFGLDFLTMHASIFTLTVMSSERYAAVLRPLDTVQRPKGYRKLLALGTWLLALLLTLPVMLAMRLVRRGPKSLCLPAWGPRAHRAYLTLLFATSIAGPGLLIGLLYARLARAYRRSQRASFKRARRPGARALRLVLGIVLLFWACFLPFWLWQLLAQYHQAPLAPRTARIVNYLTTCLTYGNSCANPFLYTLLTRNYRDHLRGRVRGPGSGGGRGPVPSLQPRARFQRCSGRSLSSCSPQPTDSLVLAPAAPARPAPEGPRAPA
Experimental: as §1

CB1 = target: T10, CB1 (Homo sapiens, UniProt P21554); conditions: agonist radioligand
T10 construct: gene CNR1
T10 sequence (P21554 whole entry): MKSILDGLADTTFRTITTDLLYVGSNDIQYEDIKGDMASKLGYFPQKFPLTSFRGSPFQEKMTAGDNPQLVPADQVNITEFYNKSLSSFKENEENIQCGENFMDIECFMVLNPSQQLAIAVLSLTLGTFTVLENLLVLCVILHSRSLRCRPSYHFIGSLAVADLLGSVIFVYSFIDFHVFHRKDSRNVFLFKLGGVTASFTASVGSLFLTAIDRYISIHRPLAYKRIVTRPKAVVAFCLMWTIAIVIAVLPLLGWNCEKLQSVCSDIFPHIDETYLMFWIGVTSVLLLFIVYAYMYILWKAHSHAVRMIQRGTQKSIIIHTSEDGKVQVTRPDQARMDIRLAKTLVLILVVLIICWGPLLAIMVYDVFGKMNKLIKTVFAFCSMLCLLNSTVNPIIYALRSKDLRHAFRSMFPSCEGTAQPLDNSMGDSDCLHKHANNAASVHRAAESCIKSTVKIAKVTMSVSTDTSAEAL
Experimental: as §1

CGRP = target: T11, CGRP (Homo sapiens, UniProt O60894+Q16602); conditions: agonist radioligand
T11 construct: gene RAMP1
Experimental: as §1

M1 = target: T12, M1 (Homo sapiens, UniProt P11229); conditions: antagonist radioligand
T12 construct: gene CHRM1
T12 sequence (P11229 whole entry): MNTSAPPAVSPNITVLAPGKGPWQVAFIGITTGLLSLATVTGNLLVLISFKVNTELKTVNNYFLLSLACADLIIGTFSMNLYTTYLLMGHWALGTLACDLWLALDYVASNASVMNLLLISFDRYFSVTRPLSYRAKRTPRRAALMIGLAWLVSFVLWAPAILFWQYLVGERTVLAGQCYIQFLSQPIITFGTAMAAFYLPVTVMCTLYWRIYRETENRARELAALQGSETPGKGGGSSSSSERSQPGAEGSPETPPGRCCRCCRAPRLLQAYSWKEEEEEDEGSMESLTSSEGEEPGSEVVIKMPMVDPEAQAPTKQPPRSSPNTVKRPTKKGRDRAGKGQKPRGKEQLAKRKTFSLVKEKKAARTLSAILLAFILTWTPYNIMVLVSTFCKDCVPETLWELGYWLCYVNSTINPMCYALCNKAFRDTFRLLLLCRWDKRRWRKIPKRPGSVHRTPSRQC
Experimental: as §1

V1a = target: T13, V1a (Homo sapiens, UniProt P37288); conditions: agonist radioligand
T13 construct: gene AVPR1A
T13 sequence (P37288 whole entry): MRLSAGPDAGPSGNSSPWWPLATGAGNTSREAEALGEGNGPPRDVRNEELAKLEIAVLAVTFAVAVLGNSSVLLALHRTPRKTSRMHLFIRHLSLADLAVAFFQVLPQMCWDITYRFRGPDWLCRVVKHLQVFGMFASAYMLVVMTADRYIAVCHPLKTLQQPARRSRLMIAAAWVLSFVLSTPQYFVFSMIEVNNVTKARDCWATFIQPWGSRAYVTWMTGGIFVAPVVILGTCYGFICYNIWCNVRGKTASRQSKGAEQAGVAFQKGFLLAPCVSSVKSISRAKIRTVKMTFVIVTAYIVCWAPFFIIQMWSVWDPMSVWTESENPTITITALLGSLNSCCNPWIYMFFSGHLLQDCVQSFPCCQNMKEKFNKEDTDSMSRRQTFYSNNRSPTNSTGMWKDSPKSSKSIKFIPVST
Experimental: as §1

NK2 = target: T14, NK2 (Homo sapiens, UniProt P21452); conditions: agonist radioligand
T14 construct: gene TACR2
Experimental: as §1

5-HT2A = target: T15, 5-HT2A (Homo sapiens, UniProt P28223); conditions: antagonist radioligand
T15 construct: gene HTR2A
Experimental: as §1

NK1 = target: T16, NK1 (Homo sapiens, UniProt P25103); conditions: agonist radioligand
T16 construct: gene TACR1
Experimental: as §1

CCK1 (CCKA) = target: T17, CCK1 (CCKA) (Homo sapiens, UniProt P32238); conditions: agonist radioligand
T17 construct: gene CCKAR
Experimental: as §1

GR = target: T18, GR (Homo sapiens, UniProt P04150); conditions: agonist radioligand
T18 construct: gene NR3C1
T18 sequence (P04150 whole entry): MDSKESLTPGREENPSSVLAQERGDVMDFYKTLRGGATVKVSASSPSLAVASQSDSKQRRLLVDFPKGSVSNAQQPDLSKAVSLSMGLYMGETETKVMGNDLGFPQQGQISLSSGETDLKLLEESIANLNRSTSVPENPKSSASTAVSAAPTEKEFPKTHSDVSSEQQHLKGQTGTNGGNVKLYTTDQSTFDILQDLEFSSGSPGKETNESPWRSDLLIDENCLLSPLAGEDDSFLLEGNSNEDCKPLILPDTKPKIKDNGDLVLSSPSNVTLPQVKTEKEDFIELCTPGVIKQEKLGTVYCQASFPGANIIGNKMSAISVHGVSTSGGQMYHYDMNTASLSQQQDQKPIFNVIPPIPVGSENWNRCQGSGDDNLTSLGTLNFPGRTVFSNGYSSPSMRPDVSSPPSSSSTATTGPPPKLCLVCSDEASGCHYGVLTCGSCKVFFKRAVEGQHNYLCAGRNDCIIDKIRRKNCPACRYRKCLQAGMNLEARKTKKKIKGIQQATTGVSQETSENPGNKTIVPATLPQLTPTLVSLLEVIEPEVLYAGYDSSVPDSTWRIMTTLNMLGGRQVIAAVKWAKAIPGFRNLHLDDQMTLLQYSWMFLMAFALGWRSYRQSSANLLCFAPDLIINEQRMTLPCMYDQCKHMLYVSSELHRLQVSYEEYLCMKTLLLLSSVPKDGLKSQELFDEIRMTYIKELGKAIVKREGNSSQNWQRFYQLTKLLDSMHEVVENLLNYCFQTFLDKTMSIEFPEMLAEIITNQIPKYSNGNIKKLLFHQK
Experimental: as §1

H1 = target: T19, H1 (Homo sapiens, UniProt P35367); conditions: antagonist radioligand
T19 construct: gene HRH1
T19 sequence (P35367 whole entry): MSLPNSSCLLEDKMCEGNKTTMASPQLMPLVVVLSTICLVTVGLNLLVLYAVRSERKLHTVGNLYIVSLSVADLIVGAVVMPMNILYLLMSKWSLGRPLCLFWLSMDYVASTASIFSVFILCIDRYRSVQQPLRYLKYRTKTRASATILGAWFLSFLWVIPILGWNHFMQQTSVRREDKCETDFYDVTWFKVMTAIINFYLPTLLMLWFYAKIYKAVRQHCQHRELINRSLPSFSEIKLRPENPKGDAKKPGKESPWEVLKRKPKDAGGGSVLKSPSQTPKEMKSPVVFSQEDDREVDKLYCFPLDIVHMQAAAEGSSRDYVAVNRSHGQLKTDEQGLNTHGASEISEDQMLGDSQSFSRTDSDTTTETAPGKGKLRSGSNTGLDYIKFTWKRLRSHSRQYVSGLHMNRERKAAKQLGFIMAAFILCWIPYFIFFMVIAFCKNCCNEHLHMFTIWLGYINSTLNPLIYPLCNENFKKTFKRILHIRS
Experimental: as §1

Measured: AC50

CC(C)CCN[C@@H]1CCc2cc(O)c(N3CC(=O)NS3(=O)=O)c(F)c2C1 [AC484, ABBV-CLS-484]
> 0.01 mM: all assays above
